Measured values as given in ChEMBL document CHEMBL1781948, “Cytotoxic veraguamides, alkynyl bromide-containing cyclic depsipeptides from the marine cyanobacterium cf. Oscillatoria margaritifera” (2011).
The source made the active and inactive calls. No cut-off for these calls is given here. Where a SMILES comes first, the peptide text is derived from it. [ ]: non-standard residue; d: D form. The star is where a group is joined. Hmpa(2S,3S) = CC[C@H](C)[C@H](O)C(=O)O; X1 = C[C@H](C(=O)*)[C@H](O)CCCC#CBr; NMeV = CN[C@H](C(=O)O)C(C)C; Hiv = CC(C)[C@H](O)C(=O)O

Tested on: NCI-H460
Assay: Cytotoxicity against human H460 cells after 48 hrs by MTT assay
Type: functional

| SMILES | LD50 | CC50 (NCI-H460, 48 h, read-out: LD50 (the source's name)) [nM] |
| --- | --- | --- |
| C#CCCC[C@H]1OC(=O)[C@H](C(C)C)N(C)C(=O)[C@@H]2CCCN2C(=O)[C@H]([C@@H](C)CC)OC(=O)[C@H](C(C)C)N(C)C(=O)[C@H](C(C)C)NC(=O)[C@H]1C | Active | – |
| CC(C)[C@@H]1NC(=O)[C@@H](C)[C@@H](CCCC#CBr)OC(=O)[C@H](C(C)C)N(C)C(=O)[C@@H]2CCCN2C(=O)[C@H](C(C)C)OC(=O)[C@H](C(C)C)N(C)C1=O | Active | – |
| CCOC(=O)[C@H](C(C)C)N(C)C(=O)[C@@H]1CCCN1C(=O)[C@@H](OC(=O)[C@H](C(C)C)N(C)C(=O)[C@@H](NC(=O)[C@@H](C)[C@H](O)CCCC#CBr)C(C)C)C(C)C (X1-V[NMeV][Hiv]P[NMeV]-OEt) | Active | – |
| CCOC(=O)[C@H](C(C)C)N(C)C(=O)[C@@H]1CCCN1C(=O)[C@@H](OC(=O)[C@H](C(C)C)N(C)C(=O)[C@@H](NC(=O)[C@@H](C)[C@H](O)CCCC#CBr)C(C)C)[C@@H](C)CC (X1-V[NMeV][Hmpa(2S,3S)]P[NMeV]-OEt) | Active | – |
| CC[C@H](C)[C@@H]1OC(=O)[C@H](C(C)C)N(C)C(=O)[C@H](C(C)C)NC(=O)[C@@H](C)[C@@H](CCCC#CBr)OC(=O)[C@H](C(C)C)N(C)C(=O)[C@@H]2CCCN2C1=O [VERAGUAMIDE A] | – | 141 |
